In patent publication US20150265703A1, “COMBINATION THERAPY OF AN AFUCOSYLATED CD20 ANTIBODY WITH A mTOR INHIBITOR” (ROCHE GLYCART AG, priority 2010, published 2015):

Tested on: SU-DHL-4 human lymphoma cells
Assay: Tumor growth inhibition study in vivo, SC SU-DHL-4 tumors in SCID beige mice
Details: for SU-DHL-4 tumors growth in comparison with tumors from vehicle-treated animals: 3 mg/kg, single agent; for T/C (%) values of the treatment groups compared to the vehicle group: day 46 after tumor cell injection, GA101 3 mg/kg IV Q7Dx4, Torisel 3 mg/kg IP Q3Dx10, SC SU-DHL-4 tumors, SCID beige mice
Experimental: Test Agents Type II anti-CD20 antibody B-HH6-B-KV1 GE (=humanized B-Ly1, glycoengineered B-HH6-B-KV1=GA101; see WO 2005/044859 and WO 2007/031875) was provided from GlycArt, Schlieren, Switzerland. Antibody buffer included histidine, trehalose and polysorbate 20. Antibody solution was diluted appropriately in PBS from stock for prior injections. Temsirolimus (Torisel®, 25 mg/ml, Wyeth Pharmaceuticals) was supplied by Oncodesign and stored at +4° C. protected from light according to the supplier's instructions.
SU-DHL-4 human lymphoma cells (DSMZ NO.: ACC 495) were grown as a suspension at 37° C. in a humidified atmosphere (5% CO2, 95% air). The culture medium was RPMI 1640 containing 2 mM L-glutamine (Ref BE12-702F, Batch N° 8MB0056, Lonza, Verviers, Belgium) and supplemented with 10% fetal bovine serum (Ref 3302, Batch N^o P282005, Lonza). The cells were counted in a hemocytometer and their viability was assessed by 0.25% trypan blue exclusion.
Female CB17 SCID beige mice, 5-6 week-old and weighing 16-20 g, were obtained from Charles River (L'Arbresle, France).
Ten millions (10^7) SU-DHL-4 tumor cells in 100 μl of PBS with matrigel (50:50, BD Biosciences, France) were subcutaneously (SC) injected into the right flank of 52 female SCID beige mice.
All study data, including animal body weight measurements, tumor volume, clinical and mortality records, and drug treatment management were managed using Vivo Manager® software (Biosystemes, Dijon, France).
Isoflurane Forene (Minerve, Bondoufle, France) was used to anaesthetize the animals before SC inoculation of tumor cells, IV injection of compounds and sacrifice. Mortality, clinical signs and behaviour were recorded every day. Animal body weights and tumor volumes were monitored and recorded twice a week.
When the tumors reached a mean volume of 173±95 mm^3, 40 out of 52 tumor bearing […] mice were distributed in 4 groups of 10 mice. The treatment schedule was chosen as following: • Mice from group 1 received once weekly IV bolus injection of vehicle for 4 consecutive weeks (Q7Dx4). • Mice from group 2 received once weekly IV bolus injection of anti-CD20 antibody GA101 (B-HH6-B-KV1 GE) at 3 mg/kg/inj for 4 consecutive weeks (Q7Dx4). • Mice from group 3 received once daily IP injection of Torisel® at 3 mg/kg/inj with a 3-day interval between each dosing and a total of 10 injections (Q3Dx10). • Mice from group 4 received once weekly IV bolus injection of anti-CD20 antibody GA101 (B-HH6-B-KV1 GE) at 3 mg/kg/inj for 4 consecutive weeks (Q7Dx4) in combination with once daily IP injection of Torisel® at 3 mg/kg/inj with a 3-day interval between each dosing and a total of 10 injections (Q3Dx10)].
The antitumor efficacy of anti-CD20 antibody GA101 (B-HH6-B-KV1 GE) alone and in combination with Torisel® was examined. […]

Compound | SU-DHL-4 tumors growth in comparison with tumors from vehicle-treated animals | T/C (%) values of the treatment groups compared to the vehicle group [%]
GA101: Type II anti-CD20 antibody, humanized B-Ly1, glycoengineered B-HH6-B-KV1 (VH SEQ ID NO:7, VL SEQ ID NO:20), afucosylated IgG1 | partially delayed | 51
CO[C@H]1C[C@@H]2CC[C@@H](C)[C@@](O)(O2)C(=O)C(=O)N2CCCC[C@H]2C(=O)O[C@H]([C@H](C)C[C@@H]2CC[C@@H](OC(=O)C(C)(CO)CO)[C@H](OC)C2)CC(=O)[C@H](C)/C=C(\C)[C@@H](O)[C@@H](OC)C(=O)[C@H](C)C[C@H](C)/C=C/C=C/C=C/1C [Torisel, Temsirolimus] | partially delayed | 60
